The values below come from EP4562004B1, “NOVEL 7-SUBSTITUTED INDOLE SULFONAMIDE DERIVATIVES” (F. Hoffmann-La Roche AG, priority 2022, dated 2024).

Structures are written as SMILES.

By IC50 is commonly meant the concentration that gives 50% inhibition.

The target of the experiment is human GPR17 short isoform (Homo sapiens, UniProt Q13304). Briefly: GPR17 cAMP assay (antagonist mode, TR-FRET cAMP detection). It counts as cell-based. Particulars: CHO-K1 cells stably expressing human GPR17 short isoform; with EC80 concentration of agonist MDL29,951, IBMX 0.5mM, forskolin 15µM; normalized to reference antagonist; read-out: hGPR17 cAMP IC50. As to the method: CHO-K1 cells stably expressing vector containing untagged human GPR17 short isoform (Roche) were cultured at 37°C / 5% CO2 in DMEM (Dulbecco's Modified Eagle Medium):F-12 (1:1) supplemented with 10% foetal bovine serum and 400 µg/ml Geneticin.
Chain of human GPR17 short isoform (Q13304 29-367): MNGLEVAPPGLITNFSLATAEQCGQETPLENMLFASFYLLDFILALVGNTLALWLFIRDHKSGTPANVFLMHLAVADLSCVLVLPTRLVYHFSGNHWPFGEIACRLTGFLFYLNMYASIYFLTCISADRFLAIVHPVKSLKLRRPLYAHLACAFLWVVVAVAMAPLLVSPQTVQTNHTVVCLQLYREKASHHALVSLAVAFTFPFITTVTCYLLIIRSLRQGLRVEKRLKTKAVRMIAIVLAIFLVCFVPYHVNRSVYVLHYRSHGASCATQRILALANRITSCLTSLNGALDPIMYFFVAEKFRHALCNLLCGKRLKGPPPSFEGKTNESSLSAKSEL
Changes in intracellular cyclic adenosine monophosphate (cAMP) levels were quantified using the Nano-TRF Detection Assay kit (Roche Diagnostics, Cat. No. 05214386001). This assay allows for direct cAMP quantification in a homogeneous solution. cAMP is detected based on time-resolved fluorescence energy transfer (TR-FRET) and competitive binding of ruthenylated cAMP and endogenous cAMP to an anti-cAMP monoclonal antibody labeled with AlexaFluor-700. The Ruthenium complex serves as the FRET donor and transfers energy to AlexaFluor-700. The FRET signal is inversely proportional to the cAMP concentration.
CHO-GPR17S cells were detached with Accutase and resuspended in assay buffer consisting of Hank's Balanced Salt Solution (HBSS), 10mM HEPES (4-(2-hydroxyethyl) piperazine-1-ethanesulfonic acid solution) and 0.1% bovine serum albumin (pH 7.4). The cells were seeded in black 384-well plates (Corning) at a density of 10'000 cells / 20µl assay buffer until the addition of compounds.
Test antagonist compounds were serially diluted in dimethyl sulfoxide (DMSO) and spotted in 384-well plates. The compounds were then diluted in HBSS buffer supplemented with an EC80 concentration of MDL29,951 (3-(2-Carboxy-4,6-dichloroindol-3-yl)propionic acid) (GPR17 agonist) plus 3-Isobutyl-1-methylxanthine (IBMX) (0.5mM final concentration) and added to the cells at room temperature. Forskolin (15µM final concentration) was added 5 minutes after the test compounds and the cells were incubated at room temperature for 30 minutes. The assay was stopped by adding cAMP detection mix (containing detergents for cell lysis) for 90 minutes at room temperature.
Cellular cAMP was measured using a Paradigm reader (Molecular Devices). The raw data was used to calculate the FRET signal based on the assay's P-factor as per cAMP kit instructions. The data was normalized to the maximal activity of a reference antagonist and dose response curves were fitted to the percent activity of the test compounds using a sigmoidal dose response model (Genedata Screener).
Results in the hGPR17 cAMP assay are provided for compounds of formula I in Table 1 Table 1: […]
(In general: Cyclic AMP is a second messenger, typically raised through Gs and lowered through Gi signalling.)
For `COc1nc(NS(=O)(=O)c2c[nH]c3c(-n4nccn4)c(Br)ccc23)nc(OC)c1OC(F)F` [Example 29, 6-bromo-N-[5-(difluoromethoxy)-4,6-dimethoxy-pyrimidin-2-yl]-7-(triazol-2-yl)-1H-indole-3-sulfonamide], the concentration for half-maximal inhibition (IC50) is 22 nM. As for `COc1nc(NS(=O)(=O)c2c[nH]c3c(-n4nccn4)c(Br)ccc23)nc(OC)c1OCC(F)F` [Example 30, 6-bromo-N-[5-(2,2-difluoroethoxy)-4,6-dimethoxy-pyrimidin-2-yl]-7-(triazol-2-yl)-1H-indole-3-sulfonamide], the figure is 23 nM. The same measure for `COc1nc(NS(=O)(=O)c2c[nH]c3c(-n4nccn4)c(Br)ccc23)nc(OC)c1C1CC1C#N` (centres unmarked) [Example 31, 6-bromo-N-[5-(2-cyanocyclopropyl)-4,6-dimethoxy-pyrimidin-2-yl]-7-(triazol-2-yl)-1H-indole-3-sulfonamide]: 30 nM; for `COc1nc(NS(=O)(=O)c2c[nH]c3c(-n4nccn4)c(F)ccc23)nc(OC)c1CC(F)F` [Example 32, N-[5-(2,2-difluoroethyl)-4,6-dimethoxy-pyrimidin-2-yl]-6-fluoro-7-(triazol-2-yl)-1H-indole-3-sulfonamide]: 69 nM; for `COc1nc(NS(=O)(=O)c2c[nH]c3c(-n4nccn4)c(F)ccc23)nc(OC)c1OCCF` [Example 33, 6-fluoro-N-[5-(2-fluoroethoxy)-4,6-dimethoxy-pyrimidin-2-yl]-7-(triazol-2-yl)-1H-indole-3-sulfonamide]: 141 nM. Turning to `COc1nc(NS(=O)(=O)c2c[nH]c3c(-n4nccn4)c(F)ccc23)nc(OC)c1OC(F)F` [Example 34, N-[5-(difluoromethoxy)-4,6-dimethoxy-pyrimidin-2-yl]-6-fluoro-7-(triazol-2-yl)-1H-indole-3-sulfonamide], the IC50 is 226 nM. The same measure for `COc1nc(NS(=O)(=O)c2c[nH]c3c(-n4nccn4)c(F)ccc23)nc(OC)c1OCC(F)F` [Example 35, N-[5-(2,2-difluoroethoxy)-4,6-dimethoxy-pyrimidin-2-yl]-6-fluoro-7-(triazol-2-yl)-1H-indole-3-sulfonamide]: 126 nM. Turning to `COc1nc(NS(=O)(=O)c2c[nH]c3c(-n4nccn4)c(F)ccc23)nc(OC)c1C1CC1C#N` (centres unmarked) [Example 36, N-[5-(2-cyanocyclopropyl)-4,6-dimethoxy-pyrimidin-2-yl]-6-fluoro-7-(triazol-2-yl)-1H-indole-3-sulfonamide], the IC50 is 82 nM. The same measure for `COc1nc(NS(=O)(=O)c2c[nH]c3c(-n4cncn4)c(Cl)ccc23)nc(OC)c1CC(F)F` [Example 37, 6-chloro-N-[5-(2,2-difluoroethyl)-4,6-dimethoxy-pyrimidin-2-yl]-7-(1,2,4-triazol-1-yl)-1H-indole-3-sulfonamide]: 60 nM.

On to `COc1nc(NS(=O)(=O)c2c[nH]c3c(-n4ncc(C)n4)c(Cl)ccc23)nc(OC)c1OCC(F)F` [Example 38, 6-chloro-N-[5-(2,2-difluoroethoxy)-4,6-dimethoxy-pyrimidin-2-yl]-7-(4-methyltriazol-2-yl)-1H-indole-3-sulfonamide], for which the IC50 stood at 34 nM. As for `COc1nc(NS(=O)(=O)c2c[nH]c3c(-n4ncc(C)n4)c(Cl)ccc23)nc(OC)c1OCCF` [Example 39, 6-chloro-N-[5-(2-fluoroethoxy)-4,6-dimethoxy-pyrimidin-2-yl]-7-(4-methyltriazol-2-yl)-1H-indole-3-sulfonamide], the figure is 55 nM; as for `COc1nc(NS(=O)(=O)c2c[nH]c3c(-n4ccnn4)c(Cl)ccc23)nc(OC)c1CC(F)F` [Example 40, 6-chloro-N-[5-(2,2-difluoroethyl)-4,6-dimethoxy-pyrimidin-2-yl]-7-(triazol-1-yl)-1H-indole-3-sulfonamide], 40 nM.

For the compound `COc1nc(NS(=O)(=O)c2c[nH]c3c(-n4nccn4)c(C(F)F)ccc23)nc(OC)c1OCCF` [Example 41, 6-(difluoromethyl)-N-[5-(2-fluoroethoxy)-4,6-dimethoxy-pyrimidin-2-yl]-7-(triazol-2-yl)-1H-indole-3-sulfonamide], the IC50 came to 64 nM.

On to `COc1nc(NS(=O)(=O)c2c[nH]c3c(-n4nccn4)c(C(F)F)ccc23)nc(OC)c1CC(F)F` [Example 42, N-[5-(2,2-difluoroethyl)-4,6-dimethoxy-pyrimidin-2-yl]-6-(difluoromethyl)-7-(triazol-2-yl)-1H-indole-3-sulfonamide], for which the IC50 came out at 50 nM. For `COc1nc(NS(=O)(=O)c2c[nH]c3c(-n4cc(C)cn4)c(Cl)ccc23)nc(OC)c1OCC(F)F` [Example 43, 6-chloro-N-[5-(2,2-difluoroethoxy)-4,6-dimethoxy-pyrimidin-2-yl]-7-(4-methylpyrazol-1-yl)-1H-indole-3-sulfonamide], the IC50 worked out at 29 nM.

For `COc1nc(NS(=O)(=O)c2c[nH]c3c(-n4ccc(C)n4)c(Cl)ccc23)nc(OC)c1OCC(F)F` [Example 44, 6-chloro-N-[5-(2,2-difluoroethoxy)-4,6-dimethoxy-pyrimidin-2-yl]-7-(3-methylpyrazol-1-yl)-1H-indole-3-sulfonamide], the IC50 came out at 23 nM.

For `COc1nc(NS(=O)(=O)c2c[nH]c3c(-n4cc(F)cn4)c(Cl)ccc23)nc(OC)c1OCC(F)F` [Example 45, 6-chloro-N-[5-(2,2-difluoroethoxy)-4,6-dimethoxy-pyrimidin-2-yl]-7-(4-fluoropyrazol-1-yl)-1H-indole-3-sulfonamide], the half-inhibitory concentration (IC50) was determined as 25 nM. As for `COc1nc(NS(=O)(=O)c2c[nH]c3c(-n4nccc4C)c(Cl)ccc23)nc(OC)c1OCC(F)F` [Example 46, 6-chloro-N-[5-(2,2-difluoroethoxy)-4,6-dimethoxy-pyrimidin-2-yl]-7-(5-methylpyrazol-1-yl)-1H-indole-3-sulfonamide], the figure is 45 nM.

As to `COc1nc(NS(=O)(=O)c2c[nH]c3c(-n4cc(F)cn4)c(Cl)ccc23)nc(OC)c1OCCF` [Example 47, 6-chloro-N-[5-(2-fluoroethoxy)-4,6-dimethoxy-pyrimidin-2-yl]-7-(4-fluoropyrazol-1-yl)-1H-indole-3-sulfonamide], the IC50 turned out to be 26 nM. The same measure for `COc1nc(NS(=O)(=O)c2c[nH]c3c(-n4cc(F)cn4)c(Cl)ccc23)nc(OC)c1OC(F)F` [Example 48, 6-chloro-N-[5-(difluoromethoxy)-4,6-dimethoxy-pyrimidin-2-yl]-7-(4-fluoropyrazol-1-yl)-1H-indole-3-sulfonamide]: 69 nM; for `COc1nc(NS(=O)(=O)c2c[nH]c3c(-n4cccn4)c(C(F)F)ccc23)nc(OC)c1OC(F)F` [Example 49, N-[5-(difluoromethoxy)-4,6-dimethoxy-pyrimidin-2-yl]-6-(difluoromethyl)-7-pyrazol-1-yl-1H-indole-3-sulfonamide]: 108 nM.

Regarding `COc1nc(NS(=O)(=O)c2c[nH]c3c(-n4cccn4)c(C(F)F)ccc23)nc(OC)c1OCC(F)F` [Example 50, N-[5-(2,2-difluoroethoxy)-4,6-dimethoxy-pyrimidin-2-yl]-6-(difluoromethyl)-7-pyrazol-1-yl-1H-indole-3-sulfonamide], the IC50 amounted to 65 nM. As for `COc1nc(NS(=O)(=O)c2c[nH]c3c(-n4cccn4)c(C(F)F)ccc23)nc(OC)c1OCCF` [Example 51, 6-(difluoromethyl)-N-[5-(2-fluoroethoxy)-4,6-dimethoxy-pyrimidin-2-yl]-7-pyrazol-1-yl-1H-indole-3-sulfonamide], the figure is 94 nM.
